We go through four compounds from patent US10350188B2, “Use of Neu1 sialidase inhibitors in the treatment of cancer” (priority 2011, dated 2019).

Assay [1] addresses T1, sialidase activity associated with TLR ligand treated live BMC-2 macrophage cells (Mus musculus, UniProt O35657).
T1 construct: endogenous in cells; host or cells: BMC-2 macrophage cells
The following applies: 1-2 mM, compared to LPS positive control; cited from earlier work.

For assay [2], the target named is T2, Neu1 sialidase (Mus musculus, UniProt O35657). The experiment in a line: LPS-induced Neu1 sialidase activity in live BMA macrophage cells (4-MUNANA). Set-up: endogenous in cells; host or cells: BMA macrophage cells. It counts as cell-based. The protocol: TLR-expressing BMA macrophage cells were grown on 12 mm circular glass slides in culture media containing DMEM supplemented with 10% fetal calf serum. […] Fluorescent images were taken after 2-3 minutes using epi-fluorescent microscopy (Zeiss Imager M2, 40× objective).
This recently developed assay was used to detect sialidase activity on the surface of viable cells. […] The inhibitory potency of a series of amide-linked C9 modified DANA (2-deoxy-2,3-dehydro-D-N-acetylneuraminic add) analogues on lipopolysaccharide (LPS)-induced Neu1 sialidase activity was assessed in live BMA macrophage cells.

In the next assay the target is carboxylesterase (Homo sapiens, UniProt P23141). The following applies: cited from earlier work.
carboxylesterase, sequence (P23141 18-567): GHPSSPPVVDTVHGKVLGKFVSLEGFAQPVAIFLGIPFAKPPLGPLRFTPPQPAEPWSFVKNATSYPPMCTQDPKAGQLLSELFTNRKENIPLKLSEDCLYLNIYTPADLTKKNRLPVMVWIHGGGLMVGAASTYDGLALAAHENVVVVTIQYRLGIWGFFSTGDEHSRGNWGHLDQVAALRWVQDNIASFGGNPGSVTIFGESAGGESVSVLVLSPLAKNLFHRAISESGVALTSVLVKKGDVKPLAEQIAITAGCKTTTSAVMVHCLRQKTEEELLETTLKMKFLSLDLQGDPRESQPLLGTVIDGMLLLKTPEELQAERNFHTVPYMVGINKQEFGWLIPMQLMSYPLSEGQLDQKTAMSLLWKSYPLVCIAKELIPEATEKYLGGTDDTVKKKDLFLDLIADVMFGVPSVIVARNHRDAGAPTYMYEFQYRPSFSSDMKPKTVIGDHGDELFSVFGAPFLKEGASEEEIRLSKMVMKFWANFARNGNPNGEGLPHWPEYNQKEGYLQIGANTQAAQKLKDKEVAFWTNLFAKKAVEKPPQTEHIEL
Assay [3] deals with T2, Neu1 sialidase. The settings on record: live BMA macrophage cells; clopidogrel bisulfate 280 and 500 μM pre-treatment; LPS 5 μg/mL; oseltamivir phosphate 400 μM; cited from earlier work.
For the next assay, the system named is MiaPaCa-2 cells. The experiment in a line: Cell viability of MiaPaCa-2 pancreatic cancer cells in culture (MTT or WST-1, 72 hrs). It counts as cell-based, human. The settings on record: MiaPaCa-2; for Chemo-drug LD50: MTT, 72 hrs. For orientation: Tetrazolium assays rely on reduction of a dye to a coloured formazan, in cell work by metabolically active cells.

A further assay relates to A 2780 cells. The experiment in a line: Cell viability of A 2780 ovarian cancer cells in culture (MTT or WST-1, 72 hrs). It counts as cell-based, human. The settings on record: A 2780; for Chemo-drug LD50: WST-1, 72 hrs. The protocol: (§1) A-2780 cells are human ovarian cancer cell line which was established from tumor tissue from an untreated patient with adenocarcinoma. Cells grow as a monolayer and in suspension in spinner cultures.
(§2) All cells were grown at 37° C. in 5% CO2 in culture media containing Dulbecco's Modified Eagle Medium (DMEM) (Gibco, Rockville, Md.) supplemented with 10% fetal calf serum (FCS) (HyClone, Logan, Utah, USA).
(§3) MTT is a colorimetric assay for measuring the activity of enzymes that reduce MTT or closely related dyes (XTT, MTS, WSTs) to formazan dye, giving a purple color. A main application allows the assessment of the viability (cell counting) and the proliferation of cells (cell culture assays). It can also be used to determine cytotoxicity of potential medicinal agents and toxic materials, since those agents would stimulate or inhibit cell viability and growth. MTT (3-(4,5-Dimethylthiazol-2-yl)-2,5-diphenyltetrazolium bromide, a yellow tetrazole), is reduced to purple formazan in living cells. A solubilization solution (usually either dimethyl sulfoxide, an acidified ethanol solution, or a solution of the detergent sodium dodecyl sulphate in diluted hydrochloric acid) is added to dissolve the insoluble purple formazan product into a coloured solution. The absorbance of this coloured solution can be quantified by measuring at a certain wavelength (usually between 500 and 600 nm) by a spectrophotometer. The absorption maximum is dependent on the solvent employed.
(§4) WST-1 (Roche Applied Sciences, Montreal) is a ready-to-use substrate which measures the metabolic activity of viable cells. The WST-1 assay is nonradioactive and can be performed entirely in a microplate. It is suitable for measuring cell proliferation, cell viability or cytotoxicity. The assay is based on the reduction of WST-1 by viable cells. The reaction produces a soluble formazan salt. The procedure involves: Culturing the cells in a 96-well microplate, then incubating them with WST-1 for approx. 0.5-4 h. During this incubation period, viable cells convert WST-1 to a water-soluble formazan dye. Quantitating the formazan dye in the microplate is done with an ELISA plate reader. The absorbance directly correlates with the cell number.

Another assay relates to Capan-1 cells. Put plainly: Cell viability of Capan-1 pancreatic metastatic cancer cells in culture (MTT or WST-1, 72 hrs). It counts as cell-based, human. The following applies: Capan-1; for Chemo-drug LD50: WST-1, 72 hrs. The protocol: CAPAN-1 cells (ATCC® Number: HTB-79™) are human pancreatic cancer cell line with epithelial morphology expressing the 17 beta-estradiol (E2)-binding estrogen receptor and derived from metastatic liver with adenocarcinoma.
as §2, §3, §4

The subject of another assay is BxPC-3 cells. The experiment in a line: Cell viability of BxPC-3 pancreatic cancer cells in culture (MTT or WST-1, 72 hrs). It counts as cell-based, human. The following applies: BxPC-3; for Chemo-drug LD50: MTT, 72 hrs.
The test system of assay [4] is PANC-1 human pancreatic cancer cells implanted in RAG1/Cγ double mutant NOD xenograft mice. The experiment in a line: PANC-1 pancreatic cancer xenograft in RAG1/Cγ double mutant NOD mice. The following applies: for Liver metastases % Inhibition: vs untreated day 79.
Text: An immunodeficient mouse model with a double mutation in the combining recombinase activating gene-1 or -2 (RAG1 or RAG2) and common cytokine receptor γ chain (cγ) were used as xenograft mice. […] Mice deficient in both RAG2 and cγ (RAG2−/−/cγ−/−) were generated by inter-crossing and were maintained in SPF isolators in the Animal Care Facility, Queen's University, Kingston, Ontario K7L3N6, Canada. A colony was established in the animal facility. Mice deficient in both RAG1 and cγ (RAG1^−/−×cγ^−/−) on a non-obese diabetic (NOD) genetic background were obtained from the Jackson Laboratory (Bar Harbor, Me.) and a colony was established in the animal facility. All mice were kept under sterile conditions in micro-isolators or air-filtered cages, and were provided with autoclaved food and water. […] They were used between 6 and 8 weeks of age.
Puromycin-resistance eGFP transduced MiaPaCa-2 or PANC-1 cell clones were grown in 75 cm^2 cell culture flask at 80% confluence. The cells were resuspended into solution using TrypLE Express (Gibco) and washed with sterile saline. The cell suspension was centrifuged for 3 min at 900 rpm, and the cell pellet resuspended in sterile saline at a concentration of 5-10×10^6 cells/mL for 1-2×10^6 cells implantation into the right back flank of the mouse. Tumour measurements were taken twice a week. Tumour volumes were determined by (width square/2)×length.
The RAG1/Cγ double mutant xenograft mouse model was implanted with 2×10^6 PANC-1 cells in 0.2 mL in the right back flank.
The next assay relates to A 2780cis cells. The experiment in a line: Cell viability of A 2780cis ovarian cancer cells in culture (MTT or WST-1, 72 hrs). It counts as cell-based, human. The settings on record: A 2780cis; for Chemo-drug LD50: WST-1, 72 hrs. The protocol:
as §1, §2, §3, §4

The subject of the next assay is MCF-7 cells. The experiment in a line: Cell viability of MCF-7 breast cancer cells in culture (MTT or WST-1, 72 hrs). It counts as cell-based, human. The settings on record: MCF-7; for Chemo-drug LD50: WST-1, 72 hrs. The protocol: (§5) MDA MB-231cells (ATCC® Number: HTB-26™) are human mammary gland breast adenocarcinoma derived from metastatic pleural effusion with epithelial morphology. MCF-7 (ATCC® Number: HTB-22™) are human mammary gland breast adenocarcinoma derived from metastatic pleural effusion with epithelial morphology.
as §2, §3, §4

The next assay concerns PANC-1 cells. Put plainly: Cell viability of PANC-1 pancreatic cancer cells in culture (MTT or WST-1, 72 hrs). It counts as cell-based, human. The following applies: PANC-1; for Chemo-drug LD50: MTT, 72 hrs.
Another assay concerns MDA MB-231 cells. The experiment in a line: Cell viability of MDA MB-231 breast cancer cells in culture (MTT or WST-1, 72 hrs). The settings on record: MDA MB-231; for Chemo-drug LD50: WST-1, 72 hrs. It counts as cell-based, human. The protocol: as §5, §2, §3, §4
Where [5] appears, read: co-treatment oseltamivir phosphate 730 μM.
Where [6] appears, read: co-treatment oseltamivir phosphate 1460 μM.
Where [7] appears, read: chemo-drug alone, abraxane 0.5 mg/kg day 78, gemcitabine 30 mg/kg day […].
Setting [8] is: day 84, Gemcitabine 30 mg/kg alone.
Setting [9] is: day 93, Gemcitabine 30 mg/kg alone.
[10] abbreviates: day 112, Gemcitabine 30 mg/kg alone.
The mark [11] stands for this setting: oseltamivir phosphate 2 mg/kg, alone day 90, with abraxane 0.5 day 78, with gemcitabine 30 day 110.
The mark [12] stands for this setting: oseltamivir phosphate 5 mg/kg, alone day 90, with abraxane 0.5 day 90, with gemcitabine 30 day 109.

SMILES strings stand for the structures.

For the compound `CC(=O)N[C@H]1[C@H]([C@H](O)[C@H](O)CO)OC(C(=O)O)=C[C@@H]1O` [DANA, 2-deoxy-2,3-dehydro-N-acetylneuraminic acid], in assay [1], the “Inhibition of LPS induced sialidase activity (in words)” value is reported as “limited effect”. Besides, the “Inhibition of Neu1 sialidase (in words)” value on Neu1 sialidase [2] is listed as “moderate inhibitor of Neu1 sialidase”.

`CCC(CC)[C@H](NC(C)=O)[C@@H]1C[C@@H](C(=O)O)C[C@H]1N=C(N)N` [BCX-1827]: in assay [1], the “Inhibition of LPS induced sialidase activity (in words)” value was “limited effect”.

`COC(=O)[C@H](c1ccccc1Cl)N1CCc2sccc2C1` [clopidogrel]: the “Inhibition of hydrolysis of oseltamivir phosphate by carboxylesterase” value on carboxylesterase is recorded as no more than 90%. In addition, the “Effect on oseltamivir phosphate's capacity to inhibit LPS induced sialidase activity” value on Neu1 sialidase [3] is listed as “no effect”.

In the case of `Nc1ccn([C@@H]2O[C@H](CO)[C@@H](O)C2(F)F)c(=O)n1` [gemcitabine, Gemcitabine], the “Chemo-drug LD50” value in the assay with MiaPaCa-2 cells (setting [5]) is 0.78 µM; with MiaPaCa-2 cells (setting [6]) it was 0.078 µM; in the assay on MiaPaCa-2 cells (oseltamivir phosphate 0 μM), 0.78 µM; in the assay with A 2780 cells (setting [5]) it was 40 µM; in the assay with A 2780 cells (oseltamivir phosphate 0 μM) it was 60 µM; with Capan-1 cells (setting [5]) it was 30 µM. For the same compound, the “Chemo-drug LD50” value came to 60 µM in the assay on Capan-1 cells (oseltamivir phosphate 0 μM); 0.78 µM in the assay on BxPC-3 cells (setting [5]); 1 µM in the assay with BxPC-3 cells (setting [6]); 0.78 µM in the assay with BxPC-3 cells (oseltamivir phosphate 0 μM); 40 µM in the assay on A 2780cis cells (setting [5]); 60 µM with A 2780cis cells (oseltamivir phosphate 0 μM). The “Chemo-drug LD50” value with MCF-7 cells (setting [5]) was 40 µM; with MCF-7 cells (oseltamivir phosphate 0 μM) it was 40 µM; in the assay with PANC-1 cells (setting [5]), 1.6 µM; in the assay with PANC-1 cells (setting [6]) it was 1.5 µM; with PANC-1 cells (oseltamivir phosphate 0 μM) it was greater than 26 µM; with MDA MB-231 cells (setting [5]), 40 µM. In addition, the “Chemo-drug LD50” value in the assay on MDA MB-231 cells (oseltamivir phosphate 0 μM) is 70 µM. For the same compound, the “Chemo-drug sensitivity with oseltamivir phosphate (fold increase)” value was found to be 1 fold increase in the assay on MiaPaCa-2 cells (oseltamivir phosphate 730 μM); 10 fold increase in the assay with MiaPaCa-2 cells (oseltamivir phosphate 1460 μM); 1.5 fold increase in the assay with A 2780 cells (oseltamivir phosphate 730 μM); 2 fold increase with Capan-1 cells (oseltamivir phosphate 730 μM); 1 fold increase in the assay with BxPC-3 cells (oseltamivir phosphate 730 μM); 0.78 fold increase with BxPC-3 cells (oseltamivir phosphate 1460 μM). Moreover, the “Chemo-drug sensitivity with oseltamivir phosphate (fold increase)” value is listed as 1.5 fold increase in the assay with A 2780cis cells (oseltamivir phosphate 730 μM); 1 fold increase in the assay with MCF-7 cells (oseltamivir phosphate 730 μM); 16 fold increase in the assay with PANC-1 cells (oseltamivir phosphate 730 μM); 17 fold increase with PANC-1 cells (oseltamivir phosphate 1460 μM); 2 fold increase with MDA MB-231 cells (oseltamivir phosphate 730 μM). The “Liver metastases (ave number of nodules)” value is 12 in assay [4] (setting [7]); 10 in assay [4] (oseltamivir phosphate 2 mg/kg, alone day 90, with abraxane 0.5 mg/kg day 78, with gemcitabine 30 mg/kg day 110); 8 in [4] (oseltamivir phosphate 5 mg/kg, alone day 90, with abraxane 0.5 mg/kg day 90, with gemcitabine 30 mg/kg day 109). Moreover, the “Metastases (size, mm)” value in assay [4] (setting [7]) is 0.3-1.5 mm; in [4] (setting [11]), 0.5-1.2 mm; in assay [4] (setting [12]), 0.2-1.5 mm. Moreover, the Tumour volume in [4] (day 79, chemotherapeutic alone (Abraxane 0.5 mg/kg or Gemcitabine 30 mg/kg i.p. once weekly)) is on record as 200 ± 47 (5) mm^3; in [4] (setting [8]) it was 159 ± 52 (5) mm^3; in assay [4] (setting [9]) it was 437 ± 140 (3) mm^3; in assay [4] (setting [10]) it was 507 ± 357(2) mm^3. The “% Inhibition To untreated” value was 86% in [4] (day 79, chemotherapeutic alone (Abraxane 0.5 or Gemcitabine 30 mg/kg)); 86% (p < 0.0001) in assay [4] (day 79, chemotherapeutic alone (Abraxane 0.5 or Gemcitabine 30 mg/kg), listed as Gemcitabine); 89% in [4] (setting [8]); 89% (p < 0.0001) in [4] (day 84, Gemcitabine 30 mg/kg alone, listed as Gemcitabine); 69% in assay [4] (setting [9]); 69% (p < 0.0001) in assay [4] (day 93, Gemcitabine 30 mg/kg alone, listed as Gemcitabine). The “% Inhibition To untreated” value amounted to 63% in assay [4] (setting [10]) and 63% in [4] (day 112, Gemcitabine 30 mg/kg alone, listed as Gemcitabine). Further, the “Liver metastases % Inhibition” value came to 76% in assay [4] (setting [11]) and 81% in assay [4] (setting [12]).
